In patent US20090176817A1, “Method of Treatment of Diarrhea-Predominant Irritable Bowel Syndrome in a Subject” (priority 2005, published 2009):
Marks after values point to notes of the source that are not given here.

Legend:
[1] = system: healthy, elderly subjects; assay: Study K.241.5014: colonic transit time, elderly, 8 mg TID; type: in vivo, human
Description: (§1) The effect of cilansetron on gastric emptying time and colonic transit time has been studied in 1 clinical study in healthy young subjects and 2 studies in elderly subjects. For measurement of gastric emptying time, breath samples for the determination of the ^12C/^13C ratio were taken on the last day of each treatment period immediately after ingestion of a ^13C labeled meal. The patients' breath was collected in separate 15-minute intervals, for four hours in total. ^13CO2 measurements were performed with an isotope ratio mass spectrometer. The half-life (TK) and lag-time (Tlag), which describe the duration of gastric emptying, were used as the primary parameters to evaluate gastric emptying time. In all 3 studies, colonic transit time was measured by administration of radio-opaque markers for the last six days of each treatment period, followed by a single abdominal X-ray image at 24 hours after ingestion of the last set of markers. The numbers of markers within the colon were used to calculate segmental (right colon, left colon, and rectosigmoid) and total colonic transit time.
Studies K.241.5013 and K.241.5014 were randomized, double-blind, placebo-controlled, 2-way crossover studies in 8 healthy male and female elderly subjects, each (ITT population, aged 64-83 years in K.241.5013 and 66-84 years in K.241.5014). Elderly subjects were selected for these studies because they commonly suffer from constipation and it was of interest whether cilansetron would prolong gastrointestinal transit times in this population. Subjects received cilansetron 4 mg or placebo in Study K.241.5013 and cilansetron 8 mg or placebo in Study K.241.5014. Treatments were administered orally TID for 14 days during each period, with a 14-day washout between periods. The primary efficacy parameter was the total mean colonic transit time during each treatment and the secondary parameters were the segmental colonic transit times and the gastric emptying measurements. One-sided t-tests were used to compare efficacy parameters between the cilansetron and placebo treatments.

healthy subjects = assay: Study K.241.5012: gastric emptying time, healthy young subjects; type: in vivo, human; details: mean (SD), not significant vs placebo
Description: as §1
Study K.241.5013 was a randomized, double-blind, placebo-controlled, 3-way crossover study in 12 healthy male subjects (ITT population), aged 20-27 years. Subjects received cilansetron 4 mg, cilansetron 8 mg, or placebo orally TID for 14 days during each of the treatment periods, with a 14-day washout between periods. The primary efficacy parameter was the total mean colonic transit time during each treatment and the secondary parameters were the segmental colonic transit times and the gastric emptying measurements. A one-sided Dunnett t-test procedure was used to compare efficacy parameters between the cilansetron and placebo treatments.

clinical = details: human, in vivo
Experimental: The single- and multiple-dose pharmacokinetics of cilansetron at oral doses of 4 mg and 8 mg were evaluated in a randomized, double-blind, placebo controlled, parallel group study in 32 male subjects (14 subjects received 4 mg cilansetron, 14 received 8 mg cilansetron, and 4 received placebo). Subjects received a single dose of cilansetron at their assigned dose on the first day of the study (Day 1), followed by a 7-day washout, after which they received cilansetron TID at their assigned dose for 6 days and a single dose on the morning of the seventh day (Day 14). Morning doses on all days were administered under fasted conditions. […] Renal excretion of cilansetron was negligible following single and multiple dosing at both doses, with less than 1% of the dose excreted unchanged in urine.

[2] = in vivo
Experimental: Time to reach steady state following dosing with cilansetron 2 mg TID has been evaluated in a study in 9 healthy male and female subjects.

[3] = 8 mg TID oral 14 days, healthy elderly, Study K.241.5014, mean (SD)

SMILES: Cc1nccn1C[C@H]1CCc2c(c3cccc4c3n2CCC4)C1=O [Cilansetron, (R)-(−)-4,5,6,8,9,10-hexahydro-10-[(2-methyl-1H-imidazol-1-yl)methyl]-11H-pyrido-[3,2,1-jk]-carbazol-11-one]
- Total colonic transit time vs placebo ([1]; 8 mg TID): statistically significant increase
- Transit Times, Colonic Segments Left [1, 3]: 31.5 (30.5) hours
- Transit Times, Colonic Segments Rectosigmoid [1, 3]: 16.7 (25.2) hours
- Transit Times, Colonic Segments Right [1, 3]: 31.4 (21.0) hours
- Transit Times, Colon Total ([1]; 8 mg TID oral 14 days, healthy elderly, Study K.241.5014, mean (SD), significant vs placebo (p < 0.05)): 79.8 (49.8)* hours
- gastric emptying time Tlag (healthy subjects; 4 mg TID oral 14 days): 1.70 (0.22) hours
- gastric emptying time T½ (healthy subjects; 4 mg TID oral 14 days): 2.46 (0.35) hours
- gastric emptying time Tlag (healthy subjects; 8 mg TID oral 14 days): 1.63 (0.30) hours
- gastric emptying time T½ (healthy subjects; 8 mg TID oral 14 days): 2.38 (0.42) hours
- CL/F (clinical; 4 mg): 3226 (51) mL/min
- CL/F (clinical; 8 mg): 3559 (62) mL/min
- Dose excreted unchanged in urine (clinical; male): less than 1%
- Intersubject % CV for AUC and Cmax (clinical; male): 36-82%
- Intrasubject % CV on AUC (clinical; male): 33-55%
- CLr (clinical; male, 4 mg): 7.47 (143) mL/min
- DN-AUC (clinical; male, 4 mg): 6.08 (36) ng · h/mL
- DN-Cmax (clinical; male, 4 mg): 2.21 (37) ng/mL
- Vd/F (clinical; male, 4 mg): 406 L
- AUC (clinical; male, 4 mg): 24.3 ng·h/mL
- Cmax (clinical; male, 4 mg): 8.83 ng/mL
- Tmax (clinical; male, 4 mg): 1.38 h
- half-life (clinical; male, 4 mg, T½): 1.55 h
- DN-AUC (clinical; male, 8 mg): 6.55 (69) ng · h/mL
- DN-Cmax (clinical; male, 8 mg): 2.89 (61) ng/mL
- Vd/F (clinical; male, 8 mg): 483 L
- AUC (clinical; male, 8 mg): 52.4 ng·h/mL
- CL renal (clinical; male, 8 mg, CLr): 4.68 mL/min
- Cmax (clinical; male, 8 mg): 23.1 ng/mL
- Tmax (clinical; male, 8 mg): 1 h
- half-life (clinical; male, 8 mg, T½): 1.92 h
- half-life (clinical; male, Mean half-life): 1.6 to 1.9 h
- Steady state achieved by [2]: third day
